Results as given in patent publication US20260146035A1, “FUSED BICYCLIC COMPOUNDS AND THEIR USE AS MER AND AXL INHIBITORS” (DONG-A ST CO., LTD., priority 2022, published 2026).
Where two headings read alike, the source gives them in different places.

Experiments:
human TYRO3 (455-end) = target: T1, human TYRO3 (455-end) (Homo sapiens, UniProt Q06418); assay: HTRF kinase activity biochemical assay, TYRO3; conditions: 10 μM ATP, 30 minutes pre-incubation; read-out: HTRF TYRO IC50
T1 construct: TYRO3 (455-end); purchased SignalChem, Canada
T1 sequence (Q06418 455-890 limits assumed): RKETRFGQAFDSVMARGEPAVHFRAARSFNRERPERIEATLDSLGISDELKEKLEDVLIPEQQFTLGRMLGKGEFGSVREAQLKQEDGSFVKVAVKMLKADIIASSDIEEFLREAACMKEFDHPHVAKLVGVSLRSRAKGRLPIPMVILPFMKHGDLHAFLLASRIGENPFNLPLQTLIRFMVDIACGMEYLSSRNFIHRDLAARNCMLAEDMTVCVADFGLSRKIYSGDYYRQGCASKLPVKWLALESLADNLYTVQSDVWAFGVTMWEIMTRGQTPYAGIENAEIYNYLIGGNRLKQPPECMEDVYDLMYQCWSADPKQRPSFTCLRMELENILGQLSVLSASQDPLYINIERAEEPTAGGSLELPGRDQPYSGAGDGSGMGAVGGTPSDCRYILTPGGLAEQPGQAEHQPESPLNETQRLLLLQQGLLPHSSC

[1] = test system: phospho-MerTK in BaF3.MerTK tumors; assay: In vivo Ba/F3 pMER ALISA assay; conditions: orally; for % inhibition: 50 milligrams per kilogram, single dose, tumors harvested 4 hours after, phospho-MerTK normalized to total MerTK; for % inhibition in the in vivo Ba/F3 pMer ALISA Assay: as shown in Tables 3 and 4: 50 milligrams per kilogram
Protocol: BaF3.MerTK tumor cells were mixed with 50% Matrigel (BD, Franklin Lakes, NJ). […] Tumors were allocated into dose groups at 10 to 11 days post tumor cell inoculation, when they were roughly 250-400 mm^3 in size. Test compounds were formulated in 10% ethanol, 30% PEG-400, and 60% Phosal-50PG, for oral dosing at 0.2 mL per dose per mouse. Plasma and tumors were harvested 4 hours after a single dose. Ba/F3 tumors were harvested into 2 mL Precellys CKmix tubes, snap frozen in liquid nitrogen, and stored at −80° C. overnight. […] Precellys tubes were then centrifuged at >18,000 g for 20 minutes at 4° C. and the supernatant was collected on ice. The lysate was then centrifuged again at >18,000 g for 10 minutes at 4° C. to remove any residual debris. […] Plates were then frozen at −80° C. overnight.

human AXL (473-end) = target: T2, human AXL (473-end) (Homo sapiens, UniProt P30530); assay: HTRF kinase activity biochemical assay, AXL
T2 construct: human AXL (473-end); purchased SignalChem, Canada
T2 sequence (P30530 473-894 limits assumed): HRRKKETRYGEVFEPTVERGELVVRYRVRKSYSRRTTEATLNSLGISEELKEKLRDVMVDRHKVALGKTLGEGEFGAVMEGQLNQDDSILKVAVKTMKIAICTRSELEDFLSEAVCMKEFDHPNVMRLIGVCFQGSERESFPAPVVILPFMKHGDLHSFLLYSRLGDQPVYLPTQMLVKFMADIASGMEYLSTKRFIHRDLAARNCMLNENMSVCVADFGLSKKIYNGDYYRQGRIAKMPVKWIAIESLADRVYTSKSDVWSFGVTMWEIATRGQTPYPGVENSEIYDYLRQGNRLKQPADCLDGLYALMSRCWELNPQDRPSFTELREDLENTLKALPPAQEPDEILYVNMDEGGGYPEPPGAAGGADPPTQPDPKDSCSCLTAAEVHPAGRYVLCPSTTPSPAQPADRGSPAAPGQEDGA

human MER (528-end) = target: T3, human MER (528-end) (Homo sapiens, UniProt Q12866); assay: HTRF kinase activity biochemical assay, MER
T3 construct: human MER (528-end); purchased Camnabio, Japan
T3 sequence (Q12866 528-999 limits assumed): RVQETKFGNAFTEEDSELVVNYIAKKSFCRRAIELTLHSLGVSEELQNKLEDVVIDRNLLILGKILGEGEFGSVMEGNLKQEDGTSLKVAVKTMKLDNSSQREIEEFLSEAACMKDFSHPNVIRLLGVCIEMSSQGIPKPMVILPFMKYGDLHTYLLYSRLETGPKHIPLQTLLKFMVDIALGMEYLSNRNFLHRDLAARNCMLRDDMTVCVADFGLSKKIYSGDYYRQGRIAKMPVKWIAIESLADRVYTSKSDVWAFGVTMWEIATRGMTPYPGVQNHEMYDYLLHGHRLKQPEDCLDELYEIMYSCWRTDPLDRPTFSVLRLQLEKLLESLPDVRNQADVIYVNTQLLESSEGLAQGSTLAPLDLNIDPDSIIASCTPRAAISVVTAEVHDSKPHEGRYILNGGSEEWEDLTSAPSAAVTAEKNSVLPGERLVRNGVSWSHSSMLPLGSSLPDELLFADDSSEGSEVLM

[2] = 10 μM ATP, 30 minutes pre-incubation
[3] = 10 μM ATP, 30 minutes pre-incubation, read-out: HTRF MERTK IC50
[4] = in vitro, read-out: HTRF MerTK IC50

SMILES: Nc1ncc(-c2ccc(F)nc2)cc1C(=O)N[C@H]1CCC[C@@H]1OCc1ccc(-c2ccc3c(c2)CC[C@@H]3N2CCN3C[C@H](O)C[C@H]3C2)cc1 [Example 117, 6-amino-6′-fluoro-N-{(1S,2S)-2-[(4-{(1S)-1-[(7R,8aS)-7-hydroxyhexahydropyrrolo[1,2-a]pyrazin-2 (1H)-yl]-2,3-dihydro-1H-inden-5-yl}phenyl)methoxy]cyclopentyl}[3,3′-bipyridine]-5-carboxamide]
- IC50 (human TYRO3 (455-end)): 0.1 to 1 µM
- % inhibition [1]: 64%
- IC50 (human AXL (473-end); [2]): < 0.01 µM
- IC50 (human MER (528-end); [3]): < 0.01 µM

SMILES: Nc1ncc(-c2cccnc2F)cc1C(=O)N[C@H]1CCC[C@@H]1OCc1ccc(-c2ccc3c(c2)CC[C@@H]3N2CCN3C[C@H](O)C[C@H]3C2)cc1 [Example 160, 6-amino-2′-fluoro-N-{(1S,2S)-2-[(4-{(1S)-1-[(7R,8aS)-7-hydroxyhexahydropyrrolo[1,2-a]pyrazin-2 (1H)-yl]-2,3-dihydro-1H-inden-5-yl}phenyl)methoxy]cyclopentyl}[3,3′-bipyridine]-5-carboxamide]
- IC50 (human TYRO3 (455-end)): 0.01 to 0.1 µM
- % inhibition [1]: 75%
- IC50 (human AXL (473-end); [2]): < 0.01 µM
- IC50 (human MER (528-end); [3]): < 0.01 µM

SMILES: Cn1cc(-c2cnc(N)c(C(=O)N[C@H]3CCC[C@@H]3OCc3ccc(-c4ccc5c(c4)C(C)(C)C[C@@H]5N4CCN(C[C@H](O)CO)CC4)cc3)c2)cn1 [Example 169, 2-amino-N-[(1S,2S)-2-({4-[(1S)-1-{4-[(2S)-2,3-dihydroxypropyl]piperazin-1-yl}-3,3-dimethyl-2,3-dihydro-1H-inden-5-yl]phenyl}methoxy)cyclopentyl]-5-(1-methyl-1H-pyrazol-4-yl)pyridine-3-carboxamide]
- IC50 (human TYRO3 (455-end)): < 0.01 µM
- % inhibition [1]: 76%
- IC50 (human AXL (473-end); [2]): < 0.01 µM
- IC50 (human MER (528-end); [3]): < 0.01 µM

SMILES: Nc1ncc(-c2ccc(F)nc2)cc1C(=O)N[C@H]1CCC[C@@H]1OCc1ccc(-c2ccc3c(c2)CC[C@@H]3N2CCN(CCO)CC2)cc1 [Example 46, 6-amino-6′-fluoro-N-{(1S,2S)-2-[(4-{(1S)-1-[4-(2-hydroxyethyl)piperazin-1-yl]-2,3-dihydro-1H-inden-5-yl}phenyl)methoxy]cyclopentyl}[3,3′-bipyridine]-5-carboxamide]
- IC50 (human TYRO3 (455-end)): 0.01 to 0.1 µM
- % inhibition [1]: 37%
- IC50 (human AXL (473-end); [2]): < 0.01 µM
- IC50 (human MER (528-end); [3]): < 0.01 µM

SMILES: CN1CCN(C2CC(C)(C)c3cc(-c4ccc(CO[C@H]5CCC[C@@H]5NC(=O)c5cc(-c6cnn(C)c6)cnc5N)cc4)ccc32)CC1 (stereo partly drawn) [Example 93, 2-amino-N-[(1S,2S)-2-({4-[3,3-dimethyl-1-(4-methylpiperazin-1-yl)-2,3-dihydro-1H-inden-5-yl]phenyl}methoxy)cyclopentyl]-5-(1-methyl-1H-pyrazol-4-yl)pyridine-3-carboxamide]
- IC50 (human TYRO3 (455-end)): < 0.01 µM
- % inhibition [1]: 53%
- IC50 (human AXL (473-end); [2]): < 0.01 µM
- IC50 (human MER (528-end); [3]): < 0.01 µM

SMILES: CN1CCN([C@H]2CCCc3cc(-c4ccc(CO[C@H]5CCC[C@@H]5NC(=O)c5cc(-c6cnn(C)c6)cnc5N)cc4)ccc32)CC1 [Example 164, 2-amino-N-[(1S,2S)-2-({4-[(5S)-5-(4-methylpiperazin-1-yl)-5,6,7,8-tetrahydronaphthalen-2-yl]phenyl}methoxy)cyclopentyl]-5-(1-methyl-1H-pyrazol-4-yl)pyridine-3-carboxamide]
- IC50 (human TYRO3 (455-end)): < 0.01 µM
- % inhibition [1]: 89%
- IC50 (human AXL (473-end); [2]): < 0.01 µM
- IC50 (human MER (528-end); [3]): < 0.01 µM

SMILES: Cn1cc(-c2cnc(N)c(C(=O)N[C@H]3CCC[C@@H]3OCc3ccc(-c4ccc5c(c4)CC[C@@H]5N4CCN5C[C@H](O)C[C@H]5C4)cc3)c2)cn1 [Example 161, 2-amino-N-{(1S,2S)-2-[(4-{(1S)-1-[(7R,8aS)-7-hydroxyhexahydropyrrolo[1,2-a]pyrazin-2 (1H)-yl]-2,3-dihydro-1H-inden-5-yl}phenyl)methoxy]cyclopentyl}-5-(1-methyl-1H-pyrazol-4-yl)pyridine-3-carboxamide]
- IC50 (human TYRO3 (455-end)): 0.01 to 0.1 µM
- % inhibition [1]: 85%
- IC50 (human AXL (473-end); [2]): < 0.01 µM
- IC50 (human MER (528-end); [3]): < 0.01 µM

SMILES: CC1(C)C[C@H](N2CCN(C[C@H](O)CO)CC2)c2ccc(-c3ccc(CO[C@H]4CCC[C@@H]4NC(=O)c4cc(-c5cccnc5F)cnc4N)cc3)cc21 [Example 168, 6-amino-N-[(1S,2S)-2-({4-[(1S)-1-{4-[(2S)-2,3-dihydroxypropyl]piperazin-1-yl}-3,3-dimethyl-2,3-dihydro-1H-inden-5-yl]phenyl}methoxy)cyclopentyl]-2′-fluoro[3,3′-bipyridine]-5-carboxamide]
- IC50 (human TYRO3 (455-end)): 0.01 to 0.1 µM
- % inhibition [1]: 74%
- IC50 (human AXL (473-end); [2]): < 0.01 µM
- IC50 (human MER (528-end); [3]): < 0.01 µM

SMILES: COc1ccc(-c2cnc(N)c(C(=O)N[C@H]3CCC[C@@H]3OCc3ccc(-c4ccc5c(c4)CC[C@@H]5N4CCN(CCO)CC4)cc3)c2)cn1 [Example 151, 6-amino-N-{(1S,2S)-2-[(4-{(1S)-1-[4-(2-hydroxyethyl)piperazin-1-yl]-2,3-dihydro-1H-inden-5-yl}phenyl)methoxy]cyclopentyl}-6′-methoxy[3,3′-bipyridine]-5-carboxamide]
- IC50 (human TYRO3 (455-end)): 0.01 to 0.1 µM
- % inhibition [1]: 66%
- IC50 (human AXL (473-end); [2]): < 0.01 µM
- IC50 (human MER (528-end); [3]): < 0.01 µM

SMILES: Cn1cc(-c2cnc(N)c(C(=O)N[C@H]3CCC[C@@H]3OCc3ccc(-c4ccc5c(c4)C(C)(C)CC5N4CCN(CCO)CC4)cc3)c2)cn1 (stereo partly drawn) [Example 83, 2-amino-N-{(1S,2S)-2-[(4-{1-[4-(2-hydroxyethyl)piperazin-1-yl]-3,3-dimethyl-2,3-dihydro-1H-inden-5-yl}phenyl)methoxy]cyclopentyl}-5-(1-methyl-1H-pyrazol-4-yl)pyridine-3-carboxamide]
- IC50 (human TYRO3 (455-end)): < 0.01 µM
- % inhibition [1]: 58%
- % inhibition in the in vivo Ba/F3 pMer ALISA Assay [1]: 58%
- IC50 (human AXL (473-end); [2]): < 0.01 µM
- IC50 (human AXL (473-end); in vitro): < 0.01 µM
- IC50 (human MER (528-end); [3]): < 0.01 µM
- IC50 (human MER (528-end); [4]): < 0.01 µM

SMILES: CN1CCN(C2CCCc3cc(-c4ccc(CO[C@H]5CCC[C@@H]5NC(=O)c5cc(-c6cnn(C)c6)cnc5N)cc4)ccc32)CC1 (stereo partly drawn) [Example 120, 2-amino-N-[(1S,2S)-2-({4-[5-(4-methylpiperazin-1-yl)-5,6,7,8-tetrahydronaphthalen-2-yl]phenyl}methoxy)cyclopentyl]-5-(1-methyl-1H-pyrazol-4-yl)pyridine-3-carboxamide]
- IC50 (human TYRO3 (455-end)): 0.01 to 0.1 µM
- % inhibition [1]: 67%
- IC50 (human AXL (473-end); [2]): < 0.01 µM
- IC50 (human MER (528-end); [3]): < 0.01 µM

SMILES: Cn1cc(-c2cnc(N)c(C(=O)N[C@H]3CCC[C@@H]3OCc3ccc(-c4ccc5c(c4)C(C)(C)C[C@@H]5N4CCN(CCO)CC4)cc3)c2)cn1 [Example 103, 2-amino-N-{(1S,2S)-2-[(4-{(1S)-1-[4-(2-hydroxyethyl)piperazin-1-yl]-3,3-dimethyl-2,3-dihydro-1H-inden-5-yl}phenyl)methoxy]cyclopentyl}-5-(1-methyl-1H-pyrazol-4-yl)pyridine-3-carboxamide]
- IC50 (human TYRO3 (455-end)): < 0.01 µM
- % inhibition [1]: 74%
- % inhibition in the in vivo Ba/F3 pMer ALISA Assay [1]: 74%
- IC50 (human AXL (473-end); [2]): < 0.01 µM
- IC50 (human AXL (473-end); in vitro): < 0.01 µM
- IC50 (human MER (528-end); [3]): < 0.01 µM
- IC50 (human MER (528-end); [4]): < 0.01 µM

SMILES: CN1CCN([C@H]2CC(C)(C)c3cc(-c4ccc(CO[C@H]5CCC[C@@H]5NC(=O)c5cc(-c6cnn(C)c6)cnc5N)cc4)ccc32)CC1 [Example 144, 2-amino-N-[(1S,2S)-2-({4-[(1S)-3,3-dimethyl-1-(4-methylpiperazin-1-yl)-2,3-dihydro-1H-inden-5-yl]phenyl}methoxy)cyclopentyl]-5-(1-methyl-1H-pyrazol-4-yl)pyridine-3-carboxamide]
- IC50 (human TYRO3 (455-end)): < 0.01 µM
- % inhibition [1]: 93%
- IC50 (human AXL (473-end); [2]): < 0.01 µM
- IC50 (human MER (528-end); [3]): < 0.01 µM
